The target in assay [1] is EGFR (human), P00533 [WT].
The target in a further assay is EGFR (human) (UniProt P00533). Conditions: hcc827.
Assay [2] deals with EGFR (human), P00533 [Inhibition of EGFR(L858RT/790M) Kinase Activity].

SMILES strings stand for the structures.

Sequence of EGFR (human), P00533 [WT] (P00533 whole entry, looked up): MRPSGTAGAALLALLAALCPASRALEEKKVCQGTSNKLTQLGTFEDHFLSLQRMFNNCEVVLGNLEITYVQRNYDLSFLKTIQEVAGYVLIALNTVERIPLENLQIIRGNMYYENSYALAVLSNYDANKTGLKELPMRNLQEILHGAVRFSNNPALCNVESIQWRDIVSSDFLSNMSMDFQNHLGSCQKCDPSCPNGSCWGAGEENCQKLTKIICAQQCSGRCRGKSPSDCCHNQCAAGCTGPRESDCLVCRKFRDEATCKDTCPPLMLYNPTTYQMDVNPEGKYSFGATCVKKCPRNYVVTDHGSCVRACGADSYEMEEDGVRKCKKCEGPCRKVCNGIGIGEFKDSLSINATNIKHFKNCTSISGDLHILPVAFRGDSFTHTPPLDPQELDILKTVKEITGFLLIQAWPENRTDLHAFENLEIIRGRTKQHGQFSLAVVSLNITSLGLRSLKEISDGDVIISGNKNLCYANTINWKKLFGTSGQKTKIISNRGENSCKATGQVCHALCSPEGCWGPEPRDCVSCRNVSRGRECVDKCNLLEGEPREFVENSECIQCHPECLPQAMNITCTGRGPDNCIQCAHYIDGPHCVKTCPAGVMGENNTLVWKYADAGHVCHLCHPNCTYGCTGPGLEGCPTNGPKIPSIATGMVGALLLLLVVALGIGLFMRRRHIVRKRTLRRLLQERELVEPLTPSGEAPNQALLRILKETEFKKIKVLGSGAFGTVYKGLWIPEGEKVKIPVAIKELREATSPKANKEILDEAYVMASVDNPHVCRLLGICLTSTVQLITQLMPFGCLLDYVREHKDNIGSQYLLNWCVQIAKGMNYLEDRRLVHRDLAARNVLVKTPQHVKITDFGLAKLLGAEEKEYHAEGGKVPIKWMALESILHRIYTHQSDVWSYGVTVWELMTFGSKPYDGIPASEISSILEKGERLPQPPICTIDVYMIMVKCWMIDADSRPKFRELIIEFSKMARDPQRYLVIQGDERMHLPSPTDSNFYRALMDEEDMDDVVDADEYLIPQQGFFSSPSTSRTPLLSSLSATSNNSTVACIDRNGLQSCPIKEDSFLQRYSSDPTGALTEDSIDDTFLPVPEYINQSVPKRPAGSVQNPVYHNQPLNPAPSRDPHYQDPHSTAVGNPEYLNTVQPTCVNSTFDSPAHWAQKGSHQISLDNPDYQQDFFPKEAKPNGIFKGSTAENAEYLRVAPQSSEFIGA
Sequence of EGFR (human) (P00533 whole entry, looked up): as above
Sequence of EGFR (human), P00533 [Inhibition of EGFR(L858RT/790M) Kinase Activity] (P00533 whole entry, looked up, change not shown): as the sequence (P00533 whole entry, looked up) above

Consider `CN(C)C/C=C/C(=O)N1CCc2c(sc3ncnc(N[C@H](CO[Si](C)(C)C(C)(C)C)c4ccccc4)c23)C1`, for which the figures for the half-inhibitory concentration (IC50) (in assay [1]; at EGFR (human)) were 60 to 100 nM and 301 to 999 nM, respectively. Turning to `C/C=C/C(=O)N1CCc2c(sc3ncnc(N[C@H](COCc4cccc(F)c4)c4ccccc4)c23)C1`, the IC50 (commonly the concentration at which inhibition is half-maximal) in assay [1] lay in the range of 60 to 100 nM. Take `C=CC(=O)Nc1ccc(-c2c(-c3ccccc3)oc3ncnc(N[C@H](CO)c4ccccc4)c23)cc1`: the IC50 in assay [1] was in the range of 60 to 100 nM; against EGFR (human) it was 301 to 999 nM. Regarding `O=C(O)[C@@H](Nc1ncnc2sc3c(c12)CCCC3)c1ccccc1`, in assay [1], the IC50 was 101 to 900 nM.

Take `CC(=O)OC[C@@H](Nc1ncnc2sc3c(c12)CCN(C(=O)/C=C/CN(C)C)C3)c1ccccc1`: the IC50 in assay [1] was less than 59 nM. Consider `COc1ccc(-c2oc3ncnc(N[C@H](CO)c4ccccc4)c3c2-c2ccc(OC)cc2)cc1`, for which the IC50 in assay [1] was in the range of 60 to 100 nM. Take `OC[C@@H](Nc1ncnc2sc(-c3ccccc3)cc12)c1ccccc1`: the IC50 in assay [1] was in the range of 101 to 900 nM.

In the case of `CC#CC(=O)Nc1cccc(-c2c(-c3ccccc3)oc3ncnc(N[C@H](COC)c4ccccc4)c23)c1`, in assay [1], the IC50 is 101 to 900 nM. For the compound `OC[C@@H](Nc1ncnc2oc(-c3ccccc3)c(-c3ccoc3)c12)c1ccccc1`, the concentration for half-maximal inhibition (IC50) in assay [1] lay within 101 to 900 nM; against EGFR (human), 100 to 300 nM. As to `CC[C@@H](Nc1ncnc2oc(-c3ccccc3)c(-c3ccccc3)c12)c1ccccc1`, the IC50 against EGFR (human) lay within 301 to 999 nM.

`CC(=O)Nc1cccc(-c2c(-c3ccccc3)oc3ncnc(N[C@H](CO)c4ccccc4)c23)c1`: the IC50 in assay [1] fell in the range of 101 to 900 nM; on EGFR (human), 100 to 300 nM.

With `CN(C)C/C=C/C(=O)N1CCc2c(sc3ncnc(N[C@H](CCOCc4ccccc4F)c4ccccc4)c23)C1`, the IC50 was less than 59 nM in assay [1] and 1 to 99 nM at EGFR (human).

Regarding `COCCN(C)C/C=C/C(=O)N1CCc2c(sc3ncnc(N[C@H](CO)c4ccccc4)c23)C1`, the IC50 in assay [1] is less than 59 nM. Still for that read-out and setting: then `O=C(O)[C@@H](Nc1ncnc2sc(-c3ccccc3)cc12)c1ccccc1`, with 101 to 900 nM. Compound `C=CC(=O)Nc1cccc(-c2c(-c3ccccc3)oc3ncnc(N(C)[C@H](COC)c4ccccc4)c23)c1` registered an IC50 in assay [1] of 101 to 900 nM. For `CCN(CC)C/C=C/C(=O)N1CCc2c(sc3ncnc(N[C@H](CCO)c4ccccc4)c23)C1`, the IC50 in assay [1] was less than 59 nM.

With `C=CC(=O)Nc1cccc(-c2cc3c(N[C@H](CO)c4ccccc4)ncnc3s2)c1`, the IC50 was less than 59 nM in assay [1] and 100 to 300 nM against EGFR (human).

On EGFR (human), `Cc1sc2ncnc(N[C@H](CO)c3ccccc3)c2c1C` gave an IC50 of 301 to 999 nM. As to `C=CC(=O)Nc1cccc(-c2csc3ncnc(N[C@H](CO)c4ccccc4)c23)c1`, the IC50 is less than 59 nM in assay [1] and 1 to 99 nM on EGFR (human). For `C=CC(=O)Nc1cccc(-c2coc3ncnc(N[C@H](CO)c4ccccc4)c23)c1` the same measures were 60 to 100 nM and 301 to 999 nM.

As to `CN(C)C/C=C/C(=O)N1CCc2c(sc3ncnc(N[C@H](COCc4ccc(F)cc4)c4ccccc4)c23)C1`, the figures for the concentration for half-maximal inhibition (IC50) (in assay [1]; against EGFR (human)) were less than 59 nM and 1 to 99 nM, respectively. Regarding `CN(C)C/C=C/C(=O)N1CCc2c(sc3ncnc(N[C@H](COCc4cccnc4)c4ccccc4)c23)C1`, the IC50 in assay [1] was less than 59 nM; at EGFR (human) it was 1 to 99 nM. For `C=CC(=O)Nc1ccc(-c2c(-c3ccccc3)oc3ncnc(N[C@H](C)c4ccccc4)c23)cc1` the same measures were 101 to 900 nM and 1 to 99 nM. For `C[C@@H](Nc1ncnc2sc3c(c12)CCN(C(=O)/C=C/CN=[N+]=[N-])C3)c1ccccc1` the same measures were less than 59 nM and 1 to 99 nM. The compound `OC[C@@H](Nc1ncnc2oc(-c3ccccc3)c(Cl)c12)c1ccccc1` showed a concentration for half-maximal inhibition (IC50) in assay [1] of 101 to 900 nM.

Turning to `C=C(CN(C)C)C(=O)N1CCc2c(sc3ncnc(N[C@H](CO)c4ccccc4)c23)C1`, the IC50 in assay [1] lay in the range of 101 to 900 nM; against EGFR (human), 1 to 99 nM. For `CC[C@@H](Nc1ncnc2sc3c(c12)CCCC3)c1ccccc1` the same measures were 101 to 900 nM and 301 to 999 nM. As for `COc1ccc(-c2c(-c3ccccc3)oc3ncnc(N[C@H](CO)c4ccccc4)c23)cc1`, the IC50 lay within 101 to 900 nM in assay [1] and 100 to 300 nM against EGFR (human). Consider `C=CC(=O)Nc1cccc(-c2c(-c3ccccc3)oc3ncnc(N[C@H](COC(=O)C=C)c4ccccc4)c23)c1`, for which the 50% inhibitory concentration (IC50) in assay [1] lay within 101 to 900 nM; in assay [2], 10 to 499 nM. As to `CCOC(=O)[C@@H](Nc1ncnc2oc(-c3ccccc3)c(-c3ccccc3)c12)c1ccccc1`, the IC50 against EGFR (human) is 301 to 999 nM. On to `CCC[C@@H](Nc1ncnc2sc3c(c12)CCN(C(=O)/C=C/CN(C)C)C3)c1ccccc1`, for which the IC50 was less than 59 nM in assay [1] and 1 to 99 nM on EGFR (human). In the case of `CCN(CC)C/C=C/C(=O)N1CCc2c(sc3ncnc(N[C@H](COC)c4ccccc4)c23)C1`, the values for the IC50 (in assay [1]; at EGFR (human)) were 60 to 100 nM and 1 to 99 nM, respectively. For `C[C@@H](Nc1ncnc2sc3c(c12)CCN(C(=O)/C=C/CNc1ccccc1)C3)c1ccccc1` the same measures were 101 to 900 nM and 301 to 999 nM. Take `OC[C@@H](Nc1ncnc2oc(-c3ccccc3)c(-c3ccco3)c12)c1ccccc1`: the results for the IC50 (in assay [1]; against EGFR (human)) were 101 to 900 nM and 301 to 999 nM, respectively. With `C[C@@H](Nc1ncnc2sc3c(c12)CCN(C(=O)/C=C/CN(C)CCO)C3)c1ccccc1`, the IC50 is less than 59 nM in assay [1] and 1 to 99 nM against EGFR (human).

The values are drawn from the Kinase Knowledgebase extract (Sharma et al. 2016).
